Assays:
[1] = test system: IL-1β-stimulated cytokine expression in primary human corneal epithelial cells; experiment: IL-1β-stimulated cytokine production in primary human corneal epithelial cells (30-cytokine Luminex kit); conditions: primary HCECs, 10 ng/ml IL-1β, 18 h
Protocol: Primary HCECs were seeded in 24-well plates. […] Each treatment was performed in triplicate. Media were collected and used for determination of cytokine content using a 30-cytokine Luminex kit. Cell viability was determined by alamarBlue assay (LP06013).
Median fluorescence intensity (MFI) was used to obtain the concentration of each cytokines in pg/ml based on the standard curve of each cytokine assayed by Luminex. The linear range of the standard curve for each cytokine was used for determination of cytokine concentration. Duplicate values for each sample were averaged. Data were expressed as mean±SD. Statistical analysis was performed using one-way ANOVA-Dunnett's test, and P<0.05 was considered statistically significant.

[2] = test system: pain following cataract surgery; experiment: Clinical dose ranging study after cataract surgery: Grade 0 pain; format: in vivo, human
From the text: There were 8 treatment groups in this study, consisting of three drug doses, vehicle and three dosing frequencies (see also Table 4-1): • Group A: 1% BOL-303242-X ophthalmic suspension, two times per day (BID) • Group B: 2% BOL-303242-X ophthalmic suspension, one time per day (QD) • Group C: 2% BOL-303242-X ophthalmic suspension, BID • Group D: 2% BOL-303242-X ophthalmic suspension, four times per day (QID) • Group E: 3% BOL-303242-X ophthalmic suspension, QD • Group F: 3% BOL-303242-X ophthalmic suspension, BID • Group G: 3% BOL-303242-X ophthalmic suspension, QID • Group H: Vehicle for BOL-303242-X (divided equally into QID, BID, and QD)
At Visit 3 (postoperative Day 1, 18 to 34 hours following surgery), subjects meeting all eligibility criteria were randomized to one of the treatment groups continuing to be studied, including vehicle, in a 1:1 ratio.
Subjects self-administered study drug, instilling 1 to 2 drops of study drug into the study eye: QID at approximately 4 hour intervals, BID at approximately 12 hour intervals, or QD once in the morning, for 14 days. The initial dose occurred in the clinic at Visit 3 and the final dose was on the day before Visit 6 (postoperative Day 15±1 day). Subjects were examined and evaluated according to the following schedule:
Visit 1 (screening), Visit 2 (cataract surgery), Visit 3 (postoperative Day 1), Visit 4 (postoperative Day 3±1 day), Visit 5 (postoperative Day 8±1 day), Visit 6 (postoperative Day 15±1 day), Visit 7 (postoperative Day 18±1 day). Subject assessments included adverse events (AEs), concomitant medications, ocular symptoms, pinholed Snellen visual acuity (VA), intraocular pressure (IOP), ocular signs (biomicroscopy), fundoscopy, and study drug drop sensation. In addition, subject diaries were collected and reviewed for accuracy and treatment compliance.
Secondary Efficacy: The secondary efficacy endpoints for this study were the proportions of subjects with Grade 0 pain at Visit 5 (postoperative Day 8) and at each visit, complete resolution of AC cells at each visit, complete resolution of AC cells and flare at each visit, complete resolution of AC flare at each visit, change from baseline to each follow-up visit in AC cells and AC flare combined and separately, ocular symptoms.

COX-2 = COX-2 protein in IL-1β-induced human conjunctival fibroblasts (Western blot); format: cell-based; conditions: 2 h pretreatment, then 24 h with IL-1β
Protocol: Cells were washed with ice-cold PBS and lysed in cell lysis buffer (62.5 mM Tris-HCl, pH 6.8, 2% sodium dodecyl sulfate (SDS), 10% glycerol). Cells were sonicated, and centrifuged at 12.000 rpm and protein concentration was determined using the Micro BCA protein assay kit. Proteins in aliquots of cell lysate (˜20 μg protein) were separated by SDS-polyacrylamide electrophoresis (SDS-PAGE) on 10% gels and transferred to PVDF membranes. Membranes were blocked with 5% BSA and exposed to mouse anti-COX-2 antibody (Caymen). The blots were washed, and exposed to horseradish peroxidase-conjugated anti-mouse secondary antibody. After washing, blots were incubated in ECL (enhanced chemiluminescence) solutions and chemiluminescent bands were visualized using the FluorChem imaging system (AlphaInnotech, San Leandro, Calif.). Blots were then stripped and re-probed for glyceraldehyde 3-phosphate dehydrogenase (GAPDH) (Zymed) antibody as loading controls. The experiment was repeated 3 times. Analysis of Western blot band density for COX-2 and GAPDH in captured digital images was done using the Alpha-Innotech Chemi-Imager software (Alpha Innotech; San Leandro, Calif.). Levels of COX-2 protein were normalized to GAPDH.

SMILES: Cc1ccc2c(NCC(O)(CC(C)(C)c3cc(F)cc4c3OCC4)C(F)(F)F)cccc2n1 (stereo not drawn) [BOL-303242-X]
- Effect on IL-1β-stimulated G-CSF production [1]: significantly inhibited
- Effect on IL-1β-stimulated production of 6 cytokines (IL-6, IL-7, MCP-1, TGF-α, TNF-α and VEGF) ([1]; comparable potency): significantly inhibited
- Effect on IL-1β-stimulated production of 3 cytokines (GM-CSF, IL-8, and RANTES) ([1]; less potency compared to dexamethasone): significantly inhibited
- Proportion of subjects with Grade 0 pain ([2]; 1% BID, Visit 6 (postoperative Day 15)): 61.7%
- Proportion of subjects with Grade 0 pain ([2]; 1% BID, Visit 7 (postoperative Day 18)): 61.7%
- Proportion of subjects with Grade 0 pain ([2]; 2% BID, Visit 6 (postoperative Day 15)): 57.1%
- Proportion of subjects with Grade 0 pain ([2]; 2% BID, Visit 7 (postoperative Day 18)): 53.6%
- Proportion of subjects with Grade 0 pain ([2]; 2% QD, Visit 6 (postoperative Day 15)): 57.1%
- Proportion of subjects with Grade 0 pain ([2]; 2% QD, Visit 7 (postoperative Day 18)): 57.1%
- Proportion of subjects with Grade 0 pain ([2]; 2% QID (printed 296 QID), Visit 5 (postoperative Day 8)): 78.396%
- Proportion of subjects with Grade 0 pain ([2]; 2% QID, Visit 4 (postoperative Day 3)): 73.3%
- Proportion of subjects with Grade 0 pain ([2]; 2% QID, Visit 6 (postoperative Day 15)): 75.0%
- Proportion of subjects with Grade 0 pain ([2]; 2% QID, Visit 7 (postoperative Day 18)): 71.7%
- Proportion of subjects with Grade 0 pain ([2]; 3% BID, Visit 4 (postoperative Day 3)): 70.0%
- Proportion of subjects with Grade 0 pain ([2]; 3% BID, Visit 5 (postoperative Day 8)): 75.0%
- Proportion of subjects with Grade 0 pain ([2]; 3% BID, Visit 6 (postoperative Day 15)): 68.3%
- Proportion of subjects with Grade 0 pain ([2]; 3% QD, Visit 4 (postoperative Day 3)): 81.4%
- Proportion of subjects with Grade 0 pain ([2]; 3% QD, Visit 5 (postoperative Day 8)): 71.2%
- Proportion of subjects with Grade 0 pain ([2]; 3% QD, Visit 6 (postoperative Day 15)): 71.2%
- Proportion of subjects with Grade 0 pain ([2]; 3% QD, Visit 7 (postoperative Day 18)): 66.1%
- Proportion of subjects with Grade 0 pain ([2]; 3% QID, Visit 4 (postoperative Day 3)): 66.7%
- Proportion of subjects with Grade 0 pain ([2]; 3% QID, Visit 5 (postoperative Day 8)): 70.0%
- Proportion of subjects with Grade 0 pain ([2]; 3% QID, Visit 6 (postoperative Day 15)): 70.0%
- Production of COX-2 by IL-1β-induced HConF (COX-2): successfully inhibits
